The values that follow come from patent USRE36139E, “Hydroquinone derivative” (Nippon Hypox Laboratories Incorporated, priority 1995, dated 1999).

Data set [1] has as its system lipid of rat liver microsome. The data set is described as follows: Inhibition activity against hyperoxidation of lipid of rat liver microsome. Format: biochemical, male Sprague Dawley (SD) rats. The settings on record: for antioxidant activity: general statement in words, no test named at the place; for antioxidant activity (conclusion from Table 2): result in words. As to the method: [Inhibition activity against hyperoxidation of lipid of rat liver microsome ] (1) Preparation of rat liver microsome suspension, A plurality of male Sprague Dawley (SD) rats (weighing […]) were prepared. Each rat was anesthetized with pentobarbital, and then subjected to celiotomy. A cannula was introduced into the portal vein of each rat, the abdominal large veins were sectioned, and 500 ml of cold 0.9% NaCl was injected into the portal veins. Livers were extracted from individual rats, and the livers were cut to pieces in 1.15% KCl and homogenized with ice cooling. Then, 1.15% KCl was further added to obtain a 30% liver homogenized solution. The above homogenized solution was centrifugally separated at 8,000 g (g: gravitation acceleration) for 10 minutes, and the resultant supernatant was recovered. […] The so-prepared suspension was stored at -20° C. before a test described in the following (2), and it was used within 1 week after the preparation. (2) Test on inhibition activity against hyperoxidation of lipid As test compounds, the hydroquinone (HQ) derivatives obtained in Preparation Examples 1 to 12, a known hydroquinone derivative which was a compound of the formula (I) in which R^1 was methyl (hereinafter referred to as HQ1) and BHT were respectively tested on their inhibition activities against hyperoxidation of lipid in the following manner. First, 0.1 ml of the liver microsome suspension obtained in the above (1), 0.1 ml of reduced […] (NADPH) (final concentration 2 mM), 0.1 ml of adenosine 5'-diphosphate (ADP) (final concentration 10 mM) and 0.1 ml of a solution of one of the test compounds whose concentration was adjusted as shown in Table 2 with 10% dimethylformamide (DMF) were added to a tris-HCl buffer (167 mM KCl, 74 mM tris-HCE buffer (TRIS), pH 7.4), and the resultant mixture was warmed at 37° C. for 5 minutes. Then, 0.1 ml of FeCl3 (final concentration 0.1 mM) was added, and the mixture was warmed at 37° C. for 20 minutes. […] Then, 0.2 ml of 8.1% sodium dodecylsulfate (SDS), 1.5 ml of an acetic acid buffer (prepared by adjusting 20% acetic acid containing 0.27 mM HCl to pH 3.5 with 10N NaOH) and 1.5 ml of 0.8% thiobarbituric acid were added to the cooled reaction mixture, and the resultant mixture was warmed over a boiling water bath for 20 minutes. […] The mixture was vigorously stirred. The reaction mixture was centrifugally separated at 2,000 rpm for 10 minutes, and the resultant supernatant was measured for an absorbance at 532 nm to determine a thiobarbituric acid reaction amount. […] In Control, the solution of the test compound in 10% DMF was replaced with 0.1 ml of a 10% DMF solution, and the above procedures were repeated to determine a peroxidized lipid amount. In Blank, each of 0.1 ml of NDAPH, 0.1 ml of ADP and 0.1 ml of FeCl3 were replaced with 0.1 ml of water, the solution of the test compound in 10% DMF was replaced with 0.1 ml of a 10% DMF solution, and the above procedures were repeated to determine a peroxidized lipid amount. The inhibition ratio of the lipid peroxidation reaction was calculated on the basis of the following equation. Inhibition ratio (%)=[1-(OD1 -OD3)/(OD2 -OD3)]×100 OD1 : Absorbance when test compound is added. OD2 : Absorbance of Control OD3 : Absorbance of Blank
(In general: Liver microsomes are vesicles of endoplasmic reticulum, rich in cytochrome P450 enzymes.)

Data set [2] in a line: DPPH elimination ability (active organic radical species elimination ability). Format: biochemical. Particulars: FIG. 1; absorbance at 517 nm; 0.02 ml of 10^-2 M DMF solution added to 2 ml of 10^-4 M DPPH in ethanol; result in words. As to the method:
[DPPH elimination ability]
The hydroquinone derivative obtained in Preparation Example 5 and BHT as test compounds were measured for the ability to eliminate DPPH (α,α-diphenyl-β-picrylhydrazyl) (active organic radical species elimination ability) in the following manner.
The test compounds were respectively dissolved in DMF to prepare DMF solutions having a test compound concentration of 10^-2 M.
Then, 0.02 ml each of the above DMF solutions were respectively added to 2 ml of an ethanol EtOH solution containing 10^-4 M of DPPH, and the resultant solutions were measured for absorbance (ODS) at 517 nm at predetermined time intervals. The DPPH elimination ability of each test compound was determined on the basis of these measurement results. In Control, the DMF solution of the test compound was replaced with DMF itself,
The elimination ability of each test compound was determined as a reduction ratio of ODS to the absorbance in Control.
A general note: Loss of DPPH colour is used to gauge radical scavenging.

In data set [3] the test system is laboratory animals. Particulars: result in words; cited from earlier work.
Data set [4] concerns rats. The settings on record: liver, large intestine, small intestine and gland of external acoustic meatus; cited from earlier work.
The subject of data set [5] is Salmonellae. Particulars: result in words; cited from earlier work.
The subject of data set [6] is mice. In words: Acute toxicity test by simple oral administering. Format: in vivo, Female ICR mice. The settings on record: maximum dose 500 mg/kg, 14 days observation. From the text:
Female ICR mice of 8 weeks age were used to carry out an acute toxicity test by simple oral administering.

Take `CCCCCCCCCCCCOc1cc(C)c(O)c(C)c1C` [Preparation Example 7]: the “Inhibition ratio of lipid peroxidation” value in data set [1] (10^-5 M test compound, 10 µM) stood at 63.9%; in data set [1] (10^-6 M test compound, 1 µM), 30.8%.
Consider `CCCCCCCCCCCCOc1ccc(O)cc1` [Preparation Example 11, 1-dodecylhydroquinone], for which the “Inhibition ratio of lipid peroxidation” value in data set [1] (10^-5 M test compound, 10 µM) worked out at 73.4%; in data set [1] (10^-6 M test compound, 1 µM), 6.3%. Besides, the antioxidant activity result in data set [1] was “excellent antioxidant activity”.
As to `COc1ccc(O)cc1` [HQ1, reference compound], the “Inhibition ratio of lipid peroxidation” value in data set [1] (10^-5 M test compound, 10 µM) was determined as 37.8%.
In the case of `CCCCCCOc1ccc(O)cc1` [Preparation Example 10], the “Inhibition ratio of lipid peroxidation” value was 99.1% in data set [1] (10^-5 M test compound, 10 µM) and 8.8% in data set [1] (10^-6 M test compound, 1 µM). The antioxidant activity entry in data set [1] was “excellent antioxidant activity”.
On to `CCCCCCCCOc1cc(C)c(O)c(C)c1C` [Preparation Example 5], for which the “Inhibition ratio of lipid peroxidation” value was found to be 100.0% in data set [1] (10^-5 M test compound, 10 µM) and 74.8% in data set [1] (10^-6 M test compound, 1 µM). The DPPH elimination ability entry in data set [2] was “excellent DPPH elimination ability over BHT”.
In the case of `CCCCCCCCCCOc1cc(C)c(O)c(C)c1C` [Preparation Example 6], the “Inhibition ratio of lipid peroxidation” value was found to be 99.9% in data set [1] (10^-5 M test compound, 10 µM) and 38.3% in data set [1] (10^-6 M test compound, 1 µM).
For the compound `CCCCOc1cc(C)c(O)c(C)c1C` [Preparation Example 3, 1-butyl-2,3,5-trimethylhydroquinone], the “Inhibition ratio of lipid peroxidation” value in data set [1] (10^-6 M test compound, 1 µM) amounted to 75.9%.
As for `CCCCCCCCCCOc1ccc(O)cc1` [Preparation Example 2], the “Inhibition ratio of lipid peroxidation” value amounted to 79.5% in data set [1] (10^-5 M test compound, 10 µM) and 1.8% in data set [1] (10^-6 M test compound, 1 µM). Further, the “antioxidant activity (conclusion from Table 2)” value in data set [1] is “excellent antioxidant activity over the known hydroquinone derivative HQ1”.
As for `CCCCCCOc1cc(C)c(O)c(C)c1C` [Preparation Example 4], the “Inhibition ratio of lipid peroxidation” value was 100.0% in data set [1] (10^-5 M test compound, 10 µM) and 98.9% in data set [1] (10^-6 M test compound, 1 µM).
Consider `CCCCCCOc1c(C)cc(O)c(C)c1C` [Preparation Example 8], for which the “Inhibition ratio of lipid peroxidation” value stood at 98.3% in data set [1] (10^-5 M test compound, 10 µM) and 40% in data set [1] (10^-6 M test compound, 1 µM).
For the compound `Cc1cccn2c1nc1ccc(N)nc12` [Glu-P-1, 2-amino-6-methyldipyrido[1,2-a:3',2'-d]imidazole], the carcinogenic activity entry in data set [3] is reported as “carcinogenic activity to laboratory animals”. Besides, the incidence of cancer entry in data set [4] is listed as “high rate of incidence of cancer”. Further, the mutagenic activity result in data set [5] was “high mutagenic activity to Salmonellae”.
`CCCCCCCCOc1ccc(O)cc1` [Preparation Example 1]: the “Inhibition ratio of lipid peroxidation” value in data set [1] (10^-5 M test compound, 10 µM) is 99.7%; in data set [1] (10^-6 M test compound, 1 µM), 9.8%. Further, the “antioxidant activity (conclusion from Table 2)” value in data set [1] is “excellent antioxidant activity over the known hydroquinone derivative HQ1”. Moreover, the mortality result in data set [6] is “No mice were found to die”.
Consider `CCCCOc1ccc(O)cc1` [Preparation Example 9, 1-butylhydroquinone], for which the “Inhibition ratio of lipid peroxidation” value in data set [1] (10^-5 M test compound, 10 µM) came out at 86.1%; in data set [1] (10^-6 M test compound, 1 µM), 10.8%. The antioxidant activity entry in data set [1] is on record as “excellent antioxidant activity”.
Regarding `CCOc1cc(C)c(O)c(C)c1C` [Preparation Example 12, 1-ethyl-2,3,5-trimethylhydroquinone], the “Inhibition ratio of lipid peroxidation” value in data set [1] (10^-5 M test compound, 10 µM) was 87.2%. Further, in data set [6], the mortality entry is on record as “No mice were found to die”.
